Results published in patent US8889711B2, “Pyrazolopyridine derivatives as anticancer agent” (Pierre Fabre Medicament, priority 2009, dated 2014).

Tested on: karpas 299 cells
Experiment: Measurement of inhibition of cell proliferation (Karpas), ATPlite
Format: cell-based
Details: Homo sapiens, KARPAS-299, 72 h
Method: Measurement of Inhibition of Cell Proliferation (Karpas):
The antiproliferative activities of the compounds were measured using the ATPlite technique (Perkin Elmer).
The non-adhering cells (karpas 299) are seeded in 96-well plates (300 000 cells/ml) on Day 1 at a concentration compatible with logarithmic growth for 72 hours required for evaluation of the compounds. All the cells are treated on Day 1, then placed in an incubator at 37° C. under 5% CO2 atmosphere. Cell viability is evaluated on Day 4 by assay of released ATP, characteristic of viable cells. The IC50 values are determined by non-linear regression on the basis of a sigmoid model of dose/response relationship, Hill's slope coefficient being left variable, performed using GraphPad software sequence with the supplied algorithm.

SMILES	IC50
Cc1n[nH]c2nc(-c3ccc(O)cc3F)c(C#N)c(-c3ccc(N4CCC(N)CC4)o3)c12 [Compound 133]	0.1 to 1 µM
Cc1n[nH]c2nc(-c3ccc(O)cc3F)c(C#N)c(-c3ccc(N(C)C)cc3)c12 [Compound 116]	1 to 10 µM
Cc1c(C#N)c(-c2ccc(O)cc2F)nc2[nH]nc(-c3csc(C4CCNCC4)n3)c12 [Compound 108]	1 to 10 µM
N#Cc1c(-c2ccc(O)cc2Cl)nc2[nH]nc(-c3ccc(N4CCOCC4)cc3)c2c1-c1ccc(N2CCNCC2)cc1 [Compound 256]	1 to 10 µM
Cc1n[nH]c2nc(-c3ccc(O)cc3F)c(C#N)cc12 [Compound 260]	1 to 10 µM
CNC1CCN(c2ccc(-c3c(C#N)c(-c4ccc(O)cc4F)nc4[nH]nc(C)c34)o2)C1 (stereo not drawn) [Compound 130]	0.1 to 1 µM
Cc1c(C#N)c(-c2ccc(O)cc2F)nc2[nH]nc(-c3ccc(N4CCN(C)CC4)nc3)c12 [Compound 115]	1 to 10 µM
Cc1n[nH]c2nc(-c3ccc([N+](=O)[O-])cc3F)c(C#N)c(-c3ccc(N4CCNCC4)cc3)c12 [Compound 158]	> 10 µM
COc1cc(-c2c(C#N)c(-c3ccc(O)cc3F)nc3[nH]nc(C)c23)ccc1OCCCN(C)C [Compound 177]	1 to 10 µM
CCOC(=O)c1c(-c2ccc(O)cc2)nc2[nH]nc(C)c2c1-c1ccc(C)o1 [Compound 223]	0.1 to 1 µM
Cc1n[nH]c2nc(-c3ccc(O)cc3F)c(C#N)c(C(=O)NN3CCN(C)CC3)c12 [Compound 135]	> 10 µM
Cc1n[nH]c2nc(-c3ccc(O)cc3)c(C#N)c(-c3ccco3)c12 [Compound 78]	1 to 10 µM
CN1CCN(c2ccc(-c3c(C#N)c(-c4ccc(O)cc4F)nc4[nH]ncc34)o2)CC1 [Compound 83]	0.1 to 1 µM
N#Cc1c(-c2ccc(O)cc2F)nc2[nH]nc(-c3ccc(C(F)(F)F)cc3)c2c1-c1ccc(N2CCNCC2)cc1 [Compound 244]	0.1 to 1 µM
Cc1n[nH]c2nc(-c3ccc(O)cc3F)c(C#N)c(-c3ccc(OCCCN4CCNCC4)cc3)c12 [Compound 213]	1 to 10 µM
Cc1n[nH]c2nc(-c3ccc(O)cc3)c(C#N)c(-c3ccc(O)cc3)c12 [Compound 19]	1 to 10 µM
N#Cc1c(-c2ccc(O)cc2F)nc2[nH]nc(N)c2c1-c1ccc(C2CCNCC2)cc1 [Compound 195]	1 to 10 µM
CCOC(=O)c1c(-c2c(F)ccc(F)c2F)nc2[nH]nc(-c3cccs3)c2c1-c1ccc(N2CCNCC2)cc1 [Compound 245]	1 to 10 µM

Next, values leading:

IC50	SMILES
1 to 10 µM	Cc1n[nH]c2nc(-c3ccc(O)cc3F)c(C#N)c(-c3ccc(N4CC[C@H](N)C4)o3)c12 [Compound 134]
> 10 µM	Cc1n[nH]c2nc(-c3ccc(O)cc3F)c(C#N)c(-c3ccc(-c4ccc(S(N)(=O)=O)cc4)o3)c12 [Compound 270]
0.1 to 1 µM	COc1ccc(-c2n[nH]c3nc(-c4ccc(O)cc4F)c(C#N)c(-c4ccc(N5CCNCC5)cc4)c23)cc1 [Compound 198]
0.1 to 1 µM	N#Cc1c(-c2ccc(O)cc2)nc2[nH]ncc2c1-c1ccc(CCCN)o1 [Compound 289]
0.1 to 1 µM	Cc1cc(-c2nc3[nH]nc(C)c3c(-c3ccc(N4CCNCC4)cc3)c2C#N)c(F)cc1O [Compound 286]
1 to 10 µM	N#Cc1c(-c2cccc(O)c2)nc2[nH]nc(-c3cccs3)c2c1-c1ccc(N2CCNCC2)cc1 [Compound 231]
> 10 µM	Cc1n[nH]c2nc(-c3ccc(O)cc3F)c(C#N)c(-c3ccc([N+](=O)[O-])cc3)c12 [Compound 143]
1 to 10 µM	Cc1n[nH]c2nc(-c3ccc(O)cc3F)c(C#N)c(-c3ccc(N4CCNCC4)c([N+](=O)[O-])c3)c12 [Compound 209]
1 to 10 µM	N#Cc1c(-c2ccc(O)cc2F)nc2[nH]nc(-c3ccc([N+](=O)[O-])cc3)c2c1-c1ccc(N2CCNCC2)cc1 [Compound 235]

Target: ALK kinase (Homo sapiens, UniProt Q9UM73)
Sequence (Q9UM73 19-1620): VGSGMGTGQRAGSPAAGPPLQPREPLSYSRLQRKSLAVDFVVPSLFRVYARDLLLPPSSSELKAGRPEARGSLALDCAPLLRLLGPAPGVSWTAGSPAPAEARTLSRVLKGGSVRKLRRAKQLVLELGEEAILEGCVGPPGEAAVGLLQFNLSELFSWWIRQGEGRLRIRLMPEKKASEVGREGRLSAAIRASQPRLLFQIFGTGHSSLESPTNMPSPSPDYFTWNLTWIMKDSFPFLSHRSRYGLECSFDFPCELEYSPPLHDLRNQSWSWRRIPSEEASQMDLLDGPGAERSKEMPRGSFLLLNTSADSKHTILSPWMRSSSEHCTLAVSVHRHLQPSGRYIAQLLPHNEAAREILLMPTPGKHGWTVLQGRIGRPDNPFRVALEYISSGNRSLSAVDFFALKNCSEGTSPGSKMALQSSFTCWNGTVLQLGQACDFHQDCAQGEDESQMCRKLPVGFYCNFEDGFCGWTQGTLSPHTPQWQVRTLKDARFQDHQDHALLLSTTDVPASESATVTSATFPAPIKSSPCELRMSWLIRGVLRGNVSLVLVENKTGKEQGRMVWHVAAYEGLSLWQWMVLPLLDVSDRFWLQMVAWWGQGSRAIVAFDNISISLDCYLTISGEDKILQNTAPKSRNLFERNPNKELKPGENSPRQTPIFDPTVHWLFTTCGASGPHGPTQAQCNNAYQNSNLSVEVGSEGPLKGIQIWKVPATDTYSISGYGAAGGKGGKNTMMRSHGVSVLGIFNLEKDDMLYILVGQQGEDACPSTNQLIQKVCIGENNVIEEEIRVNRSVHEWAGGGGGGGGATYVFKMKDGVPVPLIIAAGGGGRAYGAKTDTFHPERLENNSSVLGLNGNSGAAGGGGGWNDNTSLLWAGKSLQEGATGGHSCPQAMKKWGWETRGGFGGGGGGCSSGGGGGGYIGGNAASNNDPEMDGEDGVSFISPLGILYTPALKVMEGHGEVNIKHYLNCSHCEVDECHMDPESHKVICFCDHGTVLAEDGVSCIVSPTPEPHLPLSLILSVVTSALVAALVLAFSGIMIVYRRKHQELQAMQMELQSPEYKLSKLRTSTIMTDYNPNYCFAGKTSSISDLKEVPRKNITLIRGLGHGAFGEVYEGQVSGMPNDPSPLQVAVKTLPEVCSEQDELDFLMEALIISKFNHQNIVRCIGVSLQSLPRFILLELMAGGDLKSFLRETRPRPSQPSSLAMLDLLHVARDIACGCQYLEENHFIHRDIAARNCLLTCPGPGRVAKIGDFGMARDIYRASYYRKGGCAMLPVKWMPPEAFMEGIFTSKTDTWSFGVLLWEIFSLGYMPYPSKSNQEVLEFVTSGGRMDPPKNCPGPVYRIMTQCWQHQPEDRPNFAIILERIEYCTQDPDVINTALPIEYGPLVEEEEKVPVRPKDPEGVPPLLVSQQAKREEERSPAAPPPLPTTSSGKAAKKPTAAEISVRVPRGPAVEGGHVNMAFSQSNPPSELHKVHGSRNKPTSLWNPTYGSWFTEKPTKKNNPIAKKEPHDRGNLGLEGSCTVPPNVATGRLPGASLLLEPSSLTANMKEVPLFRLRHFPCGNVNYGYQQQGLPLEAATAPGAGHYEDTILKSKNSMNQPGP
Experiment: Test to measure ALK kinase inhibition (GST-PLCγ1 substrate, anti-phosphotyrosine ELISA, luminescence)
Format: biochemical
Details: ALK kinase 180 ng/ml, 250 μM ATP, 30 minutes at 30° C.
Method: Test to Measure ALK Kinase Inhibition
A ViewPlate (Packard) is incubated with the GST-PLCγ1 substrate (purified recombinant form) at 0.1 mg/ml in phosphate buffer (PBS pH 7.4)(100 μl/well) for one hour under shaking. The plate is then saturated with a blocking solution containing 5% bovine serum albumin (BSA) (SIGMA) in PBS buffer pH 7.4.
After adding the inhibitor at the desired final concentration (usual range of 30 μM to 10 nM), the reaction is conducted by adding the ALK kinase at 180 ng/ml in 13 mM Tris reaction buffer pH 7.5 (SIGMA); 6.5 mM MgCl2 (MERCK); 0.65 mM DiThioThreitol (DTT) (ACROS); 39 mM sodium β-glycerophosphate (TCI); 0.65 mM sodium orthovanadate (SIGMA) and 250 μM ATP (SIGMA). Incubation is carried out for 30 minutes at 30° C. under shaking.
After three washings under shaking in 0.1% PBS/Tween-20 buffer (SIGMA), an anti-phosphotyrosine antibody coupled with HRP (UBI) diluted to 1/1000th in PBS/BSA buffer 5 mg/ml, is incubated for one hour under shaking. After three further washings in 0.1% PBS/Tween-20, the wells are incubated two minutes with 100 μl of SuperSignal ELISA mixture (PIERCE).
The signal is read in luminescent mode using a luminometer (MOLECULAR DEVICES SpectraMax M5e).

SMILES	IC50
Cc1n[nH]c2nc(-c3ccc(O)cc3F)c(C#N)c(-c3ccc(N4CCC(N)CC4)o3)c12 [Compound 133]	< 0.1 µM
Cc1n[nH]c2nc(-c3ccc(O)cc3F)c(C#N)c(-c3ccc(N(C)C)cc3)c12 [Compound 116]	0.1 to 1 µM
Cc1c(C#N)c(-c2ccc(O)cc2F)nc2[nH]nc(-c3csc(C4CCNCC4)n3)c12 [Compound 108]	< 0.1 µM
N#Cc1c(-c2ccc(O)cc2Cl)nc2[nH]nc(-c3ccc(N4CCOCC4)cc3)c2c1-c1ccc(N2CCNCC2)cc1 [Compound 256]	< 0.1 µM
Cc1n[nH]c2nc(-c3ccc(O)cc3F)c(C#N)cc12 [Compound 260]	0.1 to 1 µM
CNC1CCN(c2ccc(-c3c(C#N)c(-c4ccc(O)cc4F)nc4[nH]nc(C)c34)o2)C1 (stereo not drawn) [Compound 130]	< 0.1 µM
Cc1c(C#N)c(-c2ccc(O)cc2F)nc2[nH]nc(-c3ccc(N4CCN(C)CC4)nc3)c12 [Compound 115]	0.1 to 1 µM
Cc1n[nH]c2nc(-c3ccc([N+](=O)[O-])cc3F)c(C#N)c(-c3ccc(N4CCNCC4)cc3)c12 [Compound 158]	1 to 10 µM
COc1cc(-c2c(C#N)c(-c3ccc(O)cc3F)nc3[nH]nc(C)c23)ccc1OCCCN(C)C [Compound 177]	0.1 to 1 µM
CCOC(=O)c1c(-c2ccc(O)cc2)nc2[nH]nc(C)c2c1-c1ccc(C)o1 [Compound 223]	< 0.1 µM
Cc1n[nH]c2nc(-c3ccc(O)cc3F)c(C#N)c(C(=O)NN3CCN(C)CC3)c12 [Compound 135]	0.1 to 1 µM
Cc1n[nH]c2nc(-c3ccc(O)cc3)c(C#N)c(-c3ccco3)c12 [Compound 78]	0.1 to 1 µM
CN1CCN(c2ccc(-c3c(C#N)c(-c4ccc(O)cc4F)nc4[nH]ncc34)o2)CC1 [Compound 83]	< 0.1 µM
N#Cc1c(-c2ccc(O)cc2F)nc2[nH]nc(-c3ccc(C(F)(F)F)cc3)c2c1-c1ccc(N2CCNCC2)cc1 [Compound 244]	< 0.1 µM
Cc1n[nH]c2nc(-c3ccc(O)cc3F)c(C#N)c(-c3ccc(OCCCN4CCNCC4)cc3)c12 [Compound 213]	< 0.1 µM
Cc1n[nH]c2nc(-c3ccc(O)cc3)c(C#N)c(-c3ccc(O)cc3)c12 [Compound 19]	0.1 to 1 µM
N#Cc1c(-c2ccc(O)cc2F)nc2[nH]nc(N)c2c1-c1ccc(C2CCNCC2)cc1 [Compound 195]	< 0.1 µM
CCOC(=O)c1c(-c2c(F)ccc(F)c2F)nc2[nH]nc(-c3cccs3)c2c1-c1ccc(N2CCNCC2)cc1 [Compound 245]	0.1 to 1 µM

More lines, now with the values ahead:

IC50	SMILES
< 0.1 µM	Cc1n[nH]c2nc(-c3ccc(O)cc3F)c(C#N)c(-c3ccc(N4CC[C@H](N)C4)o3)c12 [Compound 134]
0.1 to 1 µM	Cc1n[nH]c2nc(-c3ccc(O)cc3F)c(C#N)c(-c3ccc(-c4ccc(S(N)(=O)=O)cc4)o3)c12 [Compound 270]
< 0.1 µM	COc1ccc(-c2n[nH]c3nc(-c4ccc(O)cc4F)c(C#N)c(-c4ccc(N5CCNCC5)cc4)c23)cc1 [Compound 198]
< 0.1 µM	N#Cc1c(-c2ccc(O)cc2)nc2[nH]ncc2c1-c1ccc(CCCN)o1 [Compound 289]
< 0.1 µM	Cc1cc(-c2nc3[nH]nc(C)c3c(-c3ccc(N4CCNCC4)cc3)c2C#N)c(F)cc1O [Compound 286]
1 to 10 µM	N#Cc1c(-c2cccc(O)c2)nc2[nH]nc(-c3cccs3)c2c1-c1ccc(N2CCNCC2)cc1 [Compound 231]
1 to 10 µM	Cc1n[nH]c2nc(-c3ccc(O)cc3F)c(C#N)c(-c3ccc([N+](=O)[O-])cc3)c12 [Compound 143]
0.1 to 1 µM	Cc1n[nH]c2nc(-c3ccc(O)cc3F)c(C#N)c(-c3ccc(N4CCNCC4)c([N+](=O)[O-])c3)c12 [Compound 209]
0.1 to 1 µM	N#Cc1c(-c2ccc(O)cc2F)nc2[nH]nc(-c3ccc([N+](=O)[O-])cc3)c2c1-c1ccc(N2CCNCC2)cc1 [Compound 235]
